Measured values taken from patent US12679853B2, “Magnesium-serinate compound and use thereof” (priority 2018, dated 2026).

How the values were obtained:
[1] = system: mouse hippocampal neuronal HT-22 cells, treated with DMNQ; experiment: Neuronal cell protective activity against DMNQ-induced oxidative stress (DiOC6 staining, flow cytometry); type: cell-based; conditions: HT-22, DMNQ (10 μM) alone
Procedure: First, 1×10^6 cells were washed three times with 2% FBS-containing PBS solution, and the washed cells were suspended in 70% ethanol and fixed at 4° C. for 1 hour. The fixed cells were washed twice with the same solution, suspended in 250 μl of RNase A solution (50 μg/ml concentration), and incubated at 37° C. for 30 minutes to remove RNA from the cells. […] The cells were analyzed with a flow cytometer (FACS Calibur), and the distribution of the cell cycle was examined based on the content of stained DNA in each cell.

[2] = Blood-brain barrier (BBB) permeability, L-serine in blood and brain by LC/MS; design: species or system ICR mice; conditions: male, ICR, mouse, in vivo, po, 600 mg/kg
Procedure: Each of L-serine and AST-011 was administered to 7-week-old ICR mice (n=3) at a dose of 600 mg/kg, and then the brain tissue and the blood were collected. The concentrations of L-serine distributed in the blood and the brain were quantified using LC/MS, and the BBB permeability was compared between the drugs by calculating the ratio of the concentration of L-serine in the brain to that in the blood.

[3] = system: Murine hippocampal neuronal cell line HT-22; experiment: Cell viability (MTT) assay for neuronal cell proliferation activity
Procedure: Murine hippocampal neuronal cell line HT-22 was cultured in Dulbecco's Modified Eagle's Medium (DMEM) supplemented with 10% fetal bovine serum (FBS) and 100 μg/ml gentamycin at 37° C. under a 5% CO2 atmosphere. In this Example, cells at passage 15 or below were used.
Cell proliferation activity was examined by an MTT assay for measuring cell viability. First, hippocampal neuronal cell HT-22 (1×10^4 cells) was incubated with each of serially diluted sample solutions in 96-well plates for 16 hours, and then mixed with 50 μl of MTT (3-(4,5-dimethyl thiazolyl)2,5-diphenyl tetrazolium bromide) solution (1.1 mg/ml), followed by additional incubation for 4 hours. The formed formazan crystal was dissolved in 150 μl of DMSO solution, and the optical density (OD) at 540 nm was measured using a plate reader.

[4] = system: mitochondria in the hippocampal neuron cell line HT-22; experiment: Seahorse XF Cell Mito Stress Test, mitochondrial oxygen consumption rate; conditions: HT-22, 4 h drug treatment, various concentrations
Procedure: All procedures were performed according to the protocol of the Mito Stress Test Kit. First, hippocampal neuronal HT-22 cells were seeded into an XP-96 cell culture plate at a density of 8×10^3 cells/well, and then incubated in DMEM medium in a CO2 incubator at 37° C. for 12 hours. Then, the cells were treated with various concentrations of each of serine and the AST-011 drug. 4 hours after drug treatment, the medium was replaced with fresh medium, and the cells were further incubated in a CO2 incubator at 37° C. for 12 hours. After 12 hours of incubation, the cells were washed twice with assay medium (10 mM glucose, 1 mM pyruvate, 2 mM glutamine, pH 7.4), and 180 μl of medium was added thereto. Then, the cells were incubated in a non-CO2 incubator at 37° C. for 1 hour, and analyzed by a Seahorse extracellular flux (XF) analyzer.

`COC1=C(OC)C(=O)c2ccccc2C1=O` [DMNQ, 2,3-dimethoxy-1,4-napthoquinone] showed a cell damage rate [1] of 77.8%.
With `N[C@@H](CO)C(=O)O` [L-serine] the “Concentration Plasma (L-serine)” value [2] was 636 ± 55.2 ng/mL, the “activation of cell proliferation” value ([3]; HT-22, complete medium, 25 to 10,000 μg) was “did not significantly activate cell proliferation” and the viability at 500 µg/mL ([3]; Mus musculus, HT-22, read-out: cell viability) was 125%. The “oxygen consumption rate (OCR) value of mitochondria” value [4] was “OCR value increased at a treatment concentration of up to 100 μg/ml and then decreased slightly at 500 μg/ml”.
